Tests used:
[1] = test system: mouse apolipoprotein B mRNA; assay: Inhibition of mouse apolipoprotein B mRNA levels in primary mouse hepatocytes, real-time PCR; assay type: cell-based
Experimental: Primary mouse hepatocytes were prepared from CD-1 mice purchased from Charles River Labs (Wilmington, Mass.) and were routinely cultured in Hepatoyte Attachment Media (Gibco) supplemented with 10% Fetal Bovine Serum (Gibco/Life Technologies, Gaithersburg, Md.), 250 nM dexamethasone (Sigma), and 10 nM bovine insulin (Sigma). Cells were seeded into 96-well plates (Falcon-Primaria #3872) at a density of 10000 cells/well for use in RT-PCR analysis.
When cells reached 80% confluency, they were treated with oligonucleotide. For cells grown in 96-well plates, wells were washed once with 200 μL OPTI-MEM™-1 reduced-serum medium (Gibco BRL) and then treated with 130 μL of OPTI-MEM™-1 containing 3.75 μg/mL LIPOFECTIN™ (Gibco BRL) and the desired concentration of oligonucleotide. After 4-7 hours of treatment, the medium was replaced with fresh medium. Cells were harvested 16-24 hours after oligonucleotide treatment.
Quantitation of apolipoprotein B mRNA levels was determined by real-time quantitative PCR using the ABI PRISM™ 7700 Sequence Detection System (PE-Applied Biosystems, Foster City, Calif.) according to manufacturer's instructions. This is a closed-tube, non-gel-based, fluorescence detection system which allows high-throughput quantitation of polymerase chain reaction (PCR) products in real-time. As opposed to standard PCR, in which amplification products are quantitated after the PCR is completed, products in real-time quantitative PCR are quantitated as they accumulate. This is accomplished by including in the PCR reaction an oligonucleotide probe that anneals specifically between the forward and reverse PCR primers, and contains two fluorescent dyes. A reporter dye (e.g., JOE, FAM, or VIC, obtained from either Operon Technologies Inc., Alameda, Calif. or PE-Applied Biosystems, Foster City, Calif.) is attached to the 5′ end of the probe and a quencher dye (e.g., TAMRA, obtained from either Operon Technologies Inc., Alameda, Calif. or PE-Applied Biosystems, Foster City, Calif.) is attached to the 3′ end of the probe. When the probe and dyes are intact, reporter dye emission is quenched by the proximity of the 3′ quencher dye. During amplification, annealing of the probe to the target sequence creates a substrate that can be cleaved by the 5′-exonuclease activity of Taq polymerase. […] With each cycle, additional reporter dye molecules are cleaved from their respective probes, and the fluorescence intensity is monitored at regular intervals by laser optics built into the ABI PRISM™ 7700 Sequence Detection System. In each assay, a series of parallel reactions containing serial dilutions of mRNA from untreated control samples generates a standard curve that is used to quantitate the percent inhibition after antisense oligonucleotide treatment of test samples.
Probes and primers to mouse apolipoprotein B were designed to hybridize to a mouse apolipoprotein B sequence, using published sequence information (GenBank accession number M35186, incorporated herein as SEQ ID NO: 10). For mouse apolipoprotein B the PCR primers were: forward primer: CGTGGGCTCCAGCATTCTA (SEQ ID NO: 11) reverse primer: […] (SEQ ID NO: 12) and the PCR probe was: FAM-[…]-TAMRA SEQ ID NO: 13) where FAM (PE-Applied Biosystems, Foster City, Calif.) is the fluorescent reporter dye) and TAMRA (PE-Applied Biosystems, Foster City, Calif.) is the quencher dye. For mouse GAPDH the PCR primers were: forward primer: […] (SEQ ID NO: 14) reverse primer: […] (SEQ ID NO:15) and the PCR probe was: 5′ JOE-[…]-TAMRA 3′ (SEQ ID NO: 16) where JOE (PE-Applied Biosystems, Foster City, Calif.) is the fluorescent reporter dye) and TAMRA (PE-Applied Biosystems, Foster City, Calif.) is the quencher dye.
In accordance with the present invention, a series of oligonucleotides was designed to target different regions of the mouse apolipoprotein B RNA, using published sequence (GenBank accession number M35186, incorporated herein as SEQ ID NO: 10). […]

apolipoprotein B mRNA [2] = assay: ob/ob mice (Example 50): apolipoprotein B mRNA levels in liver; assay type: in vivo, mouse; conditions: liver, high fat high cholesterol diet, 50 mg/kg i.p. twice a week, six weeks
Experimental: (§1) Ob/ob mice receiving a high fat, high cholesterol diet (60% kcal fat supplemented with 0.15% cholesterol) were treated with one of several oligonucleotides to evaluate their effect on apolipoprotein B-related phenotypic endpoints in ob/ob mice. After overnight fasting, mice from each group were dosed intraperitoneally twice a week with 50 mg/kg of ISIS 147483 (SEQ ID NO: 79), or 147764 (SEQ ID NO: 109), or the controls ISIS 116847 (SEQ ID NO: 857), or 141923 (SEQ ID NO: 858), or saline for six weeks. At study termination and forty eight hours after the final injections, animals were sacrificed and evaluated for target mRNA levels in liver, cholesterol and triglyceride levels, liver enzyme levels, serum glucose levels, and PTEN levels.

PTEN = assay: ob/ob mice (Example 50): PTEN levels; assay type: in vivo, mouse; conditions: high fat high cholesterol diet, 50 mg/kg i.p. twice a week, six weeks
Experimental: as §1

[3] = ob/ob mice (Example 50): cholesterol, lipid, triglyceride, liver enzyme and glucose levels; assay type: in vivo, mouse; conditions: high fat high cholesterol diet, 50 mg/kg i.p. twice a week, six weeks
Experimental: as §1

apolipoprotein B mRNA [4] = assay: ApoE knockout mice (Example 28): target mRNA levels in liver; assay type: in vivo, mouse; conditions: high fat diet, 20 mg/kg daily
Description: (§2) Female ApoE knockout mice ranged in age from 5 to 7 weeks and were placed on a normal diet for 2 weeks before study initiation. ApoE knockout mice were then fed ad libitum a 60% fat diet, with 0.15% added cholesterol to induce dyslipidemia and obesity. Control animals were maintained on a high-fat diet with no added cholesterol. […]
(§3) At study termination and forty eight hours after the final injections, animals were sacrificed and evaluated for target mRNA levels in liver by RT-PCR methods verified by Northern Blot analysis, glucose levels, cholesterol and lipid levels by HPLC separation methods and triglyceride and liver enzyme levels (performed by LabCorp Preclinical Services; San Diego, Calif.).
(§4) Data are normalized to saline controls.

[5] = High fat fed C57BL/6 mice, 6 week timecourse: body, spleen, liver and fat pad weight; assay type: in vivo, mouse; conditions: 20 mg/kg daily, six weeks, vs saline-treated controls
Experimental: Male C57BL/6 mice (n=8) receiving a high fat diet (60% kcal fat) were evaluated over the course of 6 weeks for the effects of ISIS 147764 on body, spleen, liver and fat pad weight. Control animals received saline treatment (50 mg/kg). […]
At study termination, animals were sacrificed 48 hours after the final injections and body, spleen, liver and fat pad weights were measured. Values are expressed as percent change in body weight or ogan weight compared to the saline-treated control animals. Negative values indicated a decrease in weight.

[6] = assay type: in vivo, mouse
Description: as §2, §3, §4

[7] = High fat fed C57BL/6 mice, 6 week timecourse: serum AST and ALT levels; assay type: in vivo, mouse; conditions: daily oral dose of 20 mg/kg
Experimental: Male C57BL/6 mice (n=8) receiving a high fat diet (60% kcal fat) were evaluated over the course of 6 weeks for the effects of ISIS 147764 on liver enzyme (AST and ALT) levels. Increased levels of the liver enzymes ALT and AST indicate toxicity and liver damage. Control animals received saline treatment (50 mg/kg). […] AST and ALT levels were measured at 6 weeks.

apolipoprotein B mRNA [8] = assay: LDLr(-/-) mice dose response (Example 44): apolipoprotein B mRNA; assay type: in vivo, mouse; conditions: 20 mg/kg, six weeks
Experimental: LDLr(−/−) mice, purchased from Taconic (Germantown, N.Y.) were used to evaluate antisense oligonucleotides for their potential to lower apolipoprotein B mRNA or protein levels, as well as phenotypic endpoints associated with apolipoprotein B. LDLr(−/−) mice were separated into groups of males and females. LDLr(−/−) mice were dosed intraperitoneally twice a week for six weeks with either 10, 25, or 50 mg/kg of ISIS 147764 (SEQ ID NO: 109) or ISIS 270906 (SEQ ID NO: 856) which is a 4 base mismatch of ISIS 147764, or with saline, or 20 mg/kg of Atorvastatin. At study termination animals were sacrificed and evaluated for several phenotypic markers.

[9] = High fat fed C57BL/6 mice, 6 week timecourse: serum cholesterol, triglyceride, lipoprotein and glucose levels; assay type: in vivo, mouse; conditions: for Percent Inhibition HDL / Percent Inhibition LDL / Percent Inhibition VLDL: 20 mg/kg daily oral, negative = increase
Experimental: Male C57BL/6 mice (n=8) receiving a high fat diet (60% kcal fat) were evaluated over the course of 6 weeks for the effects of treatment with the antisense oligonucleotide, ISIS 147764. Control animals received saline treatment (50 mg/kg). A subset of animals received a daily oral dose (20 mg/kg) atorvastatin calcium (Lipitor®, Pfizer Inc.). All mice, except atorvastatin-treated animals, were dosed intraperitoneally every three days (twice a week), after fasting overnight, with 5, 25, 50 mg/kg ISIS 147764 (SEQ ID No: 109) or saline (50 mg/kg) for six weeks. Serum cholesterol and lipoproteins were analyzed at 0, 2 and 6 week interim timepoints. At study termination, animals were sacrificed 48 hours after the final injections and evaluated for levels of target mRNA levels in liver, cholesterol, lipoprotein, triglyceride, liver enzyme (AST and ALT) and serum glucose levels as well as body, liver, spleen and fat pad weights.
Male C57BL/6 mice (n=8) receiving a high fat diet (60% kcal fat) were evaluated over the course of 6 weeks for the effects of ISIS 147764 on serum cholesterol and triglyceride levels. Control animals received saline treatment (50 mg/kg). Mice were dosed intraperitoneally every three days (twice a week), after fasting overnight, with 5, 25, 50 mg/kg ISIS 147764 (SEQ ID No: 109) or saline (50 mg/kg) for six weeks.
Values in the table are expressed as percent inhibition and are normalized to the saline control.
In addition to serum cholesterol, at study termination, animals were sacrificed 48 hours after the final injections and evaluated for triglyceride levels.
Male C57BL/6 mice (n=8) receiving a high fat diet (60% kcal fat) were evaluated over the course of 6 weeks for the effects of ISIS 147764 on lipoprotein (VLDL, LDL and HDL) levels. Control animals received saline treatment (50 mg/kg). Mice were dosed intraperitoneally every three days (twice a week), after fasting overnight, with 5, 25, 50 mg/kg ISIS 147764 (SEQ ID No: 109) or saline (50 mg/kg) for six weeks.
Values in the table are expressed as percent inhibition and are normalized to the saline control. Negative values indicate an observed increase in lipoprotein levels.
Male C57BL/6 mice (n=8) receiving a high fat diet (60% kcal fat) were evaluated over the course of 6 weeks for the effects of ISIS 147764 on serum glucose levels. Control animals received saline treatment (50 mg/kg). Mice were dosed intraperitoneally every three days (twice a week), after fasting overnight, with 5, 25, 50 mg/kg ISIS 147764 (SEQ ID No: 109) or saline (50 mg/kg) for six weeks.
At study termination, animals were sacrificed 48 hours after the final injections and evaluated for serum glucose levels. […] Mice treated with atorvastatin at a daily oral dose of 20 mg/kg had serum glucose levels of 215 mg/dL.

[10] = ApoE knockout mice, high fat diet, 20 mg/kg daily

## 147483 (ATGTCAATGCCACATGTCCA; phosphorothioate, 2'-MOE wings, chemistry not fully specified) [compound 147483]
[1]; Table 4, 50 nM
  Percent Inhibition 50 nM: 56%
[1]; Table 4, 150 nM
  Percent Inhibition 150 nM: 88%
[1]; Table 4, 300 nM
  Percent Inhibition 300 nM: 89%
Apolipoprotein B mRNA [2]
  mRNA % control ApoB: 25.2 % control
PTEN
  mRNA % control PTEN: 143.2 % control
[3]
  Glucose: 213.2 mg/dL
  Lipoproteins CHOL: 250.0 mg/dL
  Lipoproteins TRIG: 99.8 mg/dL
  Liver Enzymes ALT: 941.7 IU/L
  Liver Enzymes AST: 790.2 IU/L

## CC(C)c1c(C(=O)Nc2ccccc2)c(-c2ccccc2)c(-c2ccc(F)cc2)n1CC[C@@H](O)C[C@@H](O)CC(=O)O [atorvastatin, atorvastatin calcium, reference compound]
Apolipoprotein B mRNA [4]
  mRNA Percent Inhibition: 10%
[5]
  Percent Change Fat (fat pad weight): 7%
  Percent Change Liver weight: 15%
  Percent Change Spleen weight: 10%
  Percent Change Total Body Wt.: 1%
[6]; [10]
  Cholesterol Levels: 938 mg/dL
  Glucose Levels: 162 mg/dL
  Lipoprotein Levels HDL: 42 mg/dL
  Lipoprotein Levels LDL: 250 mg/dL
  Lipoprotein Levels VLDL: 653 mg/dL
[6]; mouse, in vivo, 20 mg/kg
  Liver Enzyme Levels ALT: 76 IU/L
  Liver Enzyme Levels AST: 75 IU/L
[7]
  AST levels: 85 IU/L
  AST levels (printed in the ALT paragraph): 40 IU/L
Apolipoprotein B mRNA [8]; female LDLr(-/-) mice
  apolipoprotein B mRNA % control: 109.0 % control
Apolipoprotein B mRNA [8]; male LDLr(-/-) mice
  apolipoprotein B mRNA % control: 110.9 % control
[9]; 0 weeks
  Percent Inhibition HDL: 0%
  Percent Inhibition LDL: 0%
  Percent Inhibition VLDL: 0%
[9]; 2 weeks
  Percent Inhibition HDL: 15%
  Percent Inhibition LDL: 10%
  Percent Inhibition VLDL: 15%
[9]; 6 weeks
  Percent Inhibition HDL: 20%
  Percent Inhibition LDL: −10%
  Percent Inhibition VLDL: −5%
[9]; daily oral dose of 20 mg/kg
  serum glucose levels: 215 mg/dL
[9]; oral dose of 20 mg/kg, study termination
  decrease in serum cholesterol: 20%

## 116847 (antisense CTGCTAGCCTCTGGATTTGA; listed as DNA, chemistry not given here) [compound 116847]
Apolipoprotein B mRNA [2]
  mRNA % control ApoB: 77.0 % control
PTEN
  mRNA % control PTEN: 20.0 % control
[3]
  Glucose: 135.5 mg/dL
  Lipoproteins CHOL: 287.5 mg/dL
  Lipoproteins TRIG: 196.5 mg/dL
  Liver Enzymes ALT: 607.5 IU/L
  Liver Enzymes AST: 343.2 IU/L

Source: patent publication US7803930B2, “Antisense modulation of apolipoprotein B-expression” (Isis Pharmaceuticals, Inc., priority 2002, dated 2010)
